Data published in US8450266B2 (Ipsen Pharma S.A.S., priority 2008, dated 2013).
Where a SMILES comes first, the peptide text is derived from it. [ ]: non-standard residue; d: D form. The star is where a group is joined. X2 = CCCCCCN1C(=O)CC(*)C1=O; Decanoyl = CCCCCCCCCC(=O)*; Ac6c = NC1(C(=O)O)CCCCC1; Orn = NCCC[C@H](N)C(=O)O; Hexanoyl = CCCCCC(=O)*

How the values were obtained:
[1] = Human plasma half-life assay (LC-MS); type: in vitro ADME; details: incubated at 37° C., read-out: Human Plasma T½ (converted)
Protocol: (§1) B. Human and Rat Plasma Half-Life Assay
(§2) 50 μl, was removed at various times, like at 0, 1, 2, 3, 4, 8, 24, 32, 48, 56, 72 hours, mixed with 5 μL formic acid and 150 μL acetonitrile in a microcentrifuge tube, vertexed, and centrifuged for 10 minutes at 10K rpm. The supernatant was transferred to an injection vial and analyzed by LC-MS. The LC-MS system consisted of an API4000 mass spectrometer with an ESI probe. Positive ion mode and full scan detection were used. HPLC separation was carried out on a Luna 3μ C8 (2), 2×30 mm column with a gradient from 90% A to 90% B in 10 minutes at a flow rate of 0.3 ml/min. Buffer A was 1% formic acid in water and buffer B was 1% formic acid acetonitrile.

[2] = Rat plasma half-life assay (LC-MS); type: in vitro ADME; details: incubated at 37° C., read-out: Rat Plasma T½ (converted)
Protocol: as §1, §2

Row | SMILES | half-life at 0.1 mg/ml [1] [h] | half-life at 0.1 mg/ml [2] [h] | half-life at 0.1 mg/mL [1] [h] | half-life at 0.1 mg/mL [2] [h]
1 | CCCCCC(=O)NCCC[C@H](NC(=O)[C@H](CCCCN)NC(=O)[C@H](CCC(N)=O)NC(=O)[C@H](C)NC(=O)[C@H](CC(C)C)NC(=O)[C@H](CC(C)C)NC(=O)[C@H](Cc1c[nH]c2ccccc12)NC(=O)[C@H](CC(N)=O)NC(=O)[C@@H](NC(=O)[C@H](Cc1ccccc1)NC(=O)[C@H](CC(=O)O)NC(=O)[C@H](CCC(N)=O)NC(=O)[C@H](CCC(N)=O)NC(=O)[C@H](Cc1c[nH]cn1)NC(=O)[C@@H](NC(=O)[C@H](CCCCN)NC(=O)[C@H](CC(=O)O)NC(=O)[C@H](CCSC)NC(=O)[C@H](C)NC(=O)[C@@H](NC(=O)[C@H](CO)NC(=O)[C@H](Cc1ccc(O)cc1)NC(=O)[C@H](CC(=O)O)NC(=O)[C@H](CO)NC(=O)C1(N)CCCCC1)[C@@H](C)CC)[C@@H](C)CC)C(C)C)C(=O)N[C@@H](CCCCN)C(=O)N[C@@H](CCCCN)C(=O)N[C@@H](CC(N)=O)C(=O)N[C@@H](CC(=O)O)C(=O)N[C@@H](Cc1c[nH]c2ccccc12)C(=O)N[C@@H](CCCCN)C(=O)N[C@@H](Cc1c[nH]cn1)C(=O)N[C@@H](CC(N)=O)C(=O)N[C@H](C(=O)N[C@H](C(=O)N[C@@H](CCC(N)=O)C(=O)O)[C@@H](C)O)[C@@H](C)CC [Example 17, [A6c^7, Orn^31(N-C(O)-(CH2)4-CH3)]hGIP(7-42)-OH] (H-[Ac6c]SDYSIAMDKIHQQDFVNWLLAQK[Orn](Hexanoyl)KKNDWKHNITQ-OH) | > 50 | 9.4 |  | 
2 | CCCCCC(=O)NCCC[C@H](NC(=O)[C@H](CCCCN)NC(=O)[C@H](CCC(N)=O)NC(=O)[C@H](C)NC(=O)[C@H](CC(C)C)NC(=O)[C@H](CC(C)C)NC(=O)[C@H](Cc1c[nH]c2ccccc12)NC(=O)[C@H](CC(N)=O)NC(=O)[C@@H](NC(=O)[C@H](Cc1ccccc1)NC(=O)[C@H](CC(=O)O)NC(=O)[C@H](CCC(N)=O)NC(=O)[C@H](CCC(N)=O)NC(=O)[C@H](Cc1c[nH]cn1)NC(=O)[C@@H](NC(=O)[C@H](CCCCN)NC(=O)[C@H](CC(=O)O)NC(=O)[C@H](CCSC)NC(=O)[C@H](C)NC(=O)[C@@H](NC(=O)[C@H](CO)NC(=O)[C@H](Cc1ccc(O)cc1)NC(=O)[C@H](CC(=O)O)NC(=O)[C@H](CO)NC(=O)C1(NC(=O)CCCCC)CCCCC1)[C@@H](C)CC)[C@@H](C)CC)C(C)C)C(=O)N[C@@H](CCCCN)C(=O)N[C@@H](CCCCN)C(=O)N[C@@H](CC(N)=O)C(=O)N[C@@H](CC(=O)O)C(=O)N[C@@H](Cc1c[nH]c2ccccc12)C(=O)N[C@@H](CCCCN)C(=O)N[C@@H](Cc1c[nH]cn1)C(=O)N[C@@H](CC(N)=O)C(=O)N[C@H](C(=O)N[C@H](C(=O)N[C@@H](CCC(N)=O)C(=O)O)[C@@H](C)O)[C@@H](C)CC [Example 18, [CH3-(CH2)4-C(O)-A6c^7, Orn^31(N-C(O)-(CH2)4-CH3)]hGIP(7-42)-OH] (Hexanoyl-[Ac6c]SDYSIAMDKIHQQDFVNWLLAQK[Orn](Hexanoyl)KKNDWKHNITQ-OH) | 13.8 | 6.3 |  | 
3 | CCCCCCCCCC(=O)NCCC[C@H](NC(=O)[C@H](CCCCN)NC(=O)[C@H](CCCCN)NC(=O)CNC(=O)[C@H](CCCCN)NC(=O)[C@H](CCC(N)=O)NC(=O)[C@H](C)NC(=O)[C@H](CC(C)C)NC(=O)[C@H](CC(C)C)NC(=O)[C@H](Cc1c[nH]c2ccccc12)NC(=O)[C@H](CC(N)=O)NC(=O)[C@@H](NC(=O)[C@H](Cc1ccccc1)NC(=O)[C@H](CC(=O)O)NC(=O)[C@H](CCC(N)=O)NC(=O)[C@H](CCC(N)=O)NC(=O)[C@H](Cc1c[nH]cn1)NC(=O)[C@@H](NC(=O)[C@H](CCCCN)NC(=O)[C@H](CC(=O)O)NC(=O)[C@H](CCSC)NC(=O)[C@H](C)NC(=O)[C@@H](NC(=O)[C@H](CO)NC(=O)[C@H](Cc1ccc(O)cc1)NC(=O)[C@H](CC(=O)O)NC(=O)[C@H](CO)NC(=O)C1(NC(C)=O)CCCCC1)[C@@H](C)CC)[C@@H](C)CC)C(C)C)C(=O)N[C@@H](CC(=O)O)C(=O)N[C@@H](Cc1c[nH]c2ccccc12)C(=O)N[C@@H](CCCCN)C(=O)N[C@@H](Cc1c[nH]cn1)C(=O)N[C@@H](CC(N)=O)C(=O)N[C@H](C(=O)N[C@H](C(=O)N[C@@H](CCC(N)=O)C(=O)O)[C@@H](C)O)[C@@H](C)CC [Example 19, [Ac-A6c^7, Orn^34(N-C(O)-(CH2)8-CH3)]hGIP(7-42)-OH] (Ac-[Ac6c]SDYSIAMDKIHQQDFVNWLLAQKGKK[Orn](Decanoyl)DWKHNITQ-OH) | 18.9 | 10.7 |  | 
4 | CCCCCCCCCC(=O)NCCC[C@H](NC(=O)[C@H](CCCCN)NC(=O)[C@H](CCCCN)NC(=O)CNC(=O)[C@H](CCCCN)NC(=O)[C@H](CCC(N)=O)NC(=O)[C@H](C)NC(=O)[C@H](CC(C)C)NC(=O)[C@H](CC(C)C)NC(=O)[C@H](Cc1c[nH]c2ccccc12)NC(=O)[C@H](CC(N)=O)NC(=O)[C@@H](NC(=O)[C@H](Cc1ccccc1)NC(=O)[C@H](CC(=O)O)NC(=O)[C@H](CCC(N)=O)NC(=O)[C@H](CCC(N)=O)NC(=O)[C@H](Cc1c[nH]cn1)NC(=O)[C@@H](NC(=O)[C@H](CCCCN)NC(=O)[C@H](CC(=O)O)NC(=O)[C@H](CCSC)NC(=O)[C@H](C)NC(=O)[C@@H](NC(=O)[C@H](CO)NC(=O)[C@H](Cc1ccc(O)cc1)NC(=O)[C@H](CC(=O)O)NC(=O)[C@H](CO)NC(=O)C1(N)CCCCC1)[C@@H](C)CC)[C@@H](C)CC)C(C)C)C(=O)N[C@@H](CC(=O)O)C(=O)N[C@@H](Cc1c[nH]c2ccccc12)C(=O)N[C@@H](CCCCN)C(=O)N[C@@H](Cc1c[nH]cn1)C(=O)N[C@@H](CC(N)=O)C(=O)N[C@H](C(=O)N[C@H](C(=O)N[C@@H](CCC(N)=O)C(=O)O)[C@@H](C)O)[C@@H](C)CC [Example 20, [A6c^7, Orn^34(N-C(O)-(CH2)8-CH3)]hGIP(7-42)-OH] (H-[Ac6c]SDYSIAMDKIHQQDFVNWLLAQKGKK[Orn](Decanoyl)DWKHNITQ-OH) |  |  | 9.4 | 13.9
5 | CCCCCCN1C(=O)CC(SC[C@H](NC(=O)[C@H](CCCCN)NC(=O)[C@H](CCC(N)=O)NC(=O)[C@H](C)NC(=O)[C@H](CC(C)C)NC(=O)[C@H](CC(C)C)NC(=O)[C@H](Cc2c[nH]c3ccccc23)NC(=O)[C@H](CC(N)=O)NC(=O)[C@@H](NC(=O)[C@H](Cc2ccccc2)NC(=O)[C@H](CC(=O)O)NC(=O)[C@H](CCC(N)=O)NC(=O)[C@H](CCC(N)=O)NC(=O)[C@H](Cc2c[nH]cn2)NC(=O)[C@@H](NC(=O)[C@H](CCCCN)NC(=O)[C@H](CC(=O)O)NC(=O)[C@H](CCSC)NC(=O)[C@H](C)NC(=O)[C@@H](NC(=O)[C@H](CO)NC(=O)[C@H](Cc2ccc(O)cc2)NC(=O)[C@H](CC(=O)O)NC(=O)[C@H](CO)NC(=O)C2(NC(C)=O)CCCCC2)[C@@H](C)CC)[C@@H](C)CC)C(C)C)C(=O)N[C@@H](CCCCN)C(=O)N[C@@H](CCCCN)C(=O)N[C@@H](CC(N)=O)C(=O)N[C@@H](CC(=O)O)C(=O)N[C@@H](Cc2c[nH]c3ccccc23)C(=O)N[C@@H](CCCCN)C(=O)N[C@@H](Cc2c[nH]cn2)C(=O)N[C@@H](CC(N)=O)C(=O)N[C@H](C(=O)N[C@H](C(=O)N[C@@H](CCC(N)=O)C(=O)O)[C@@H](C)O)[C@@H](C)CC)C1=O (stereo partly drawn) [Example 22, [Ac-A6c^7, Cys(Hsu)^31]hGIP(7-42)-OH] (Ac-[Ac6c]SDYSIAMDKIHQQDFVNWLLAQKC(X2)KKNDWKHNITQ-OH) | 7.7 | 5 |  | 
6 | CCCCCCN1C(=O)CC(SC[C@H](NC(=O)[C@H](CCCCN)NC(=O)[C@H](CCC(N)=O)NC(=O)[C@H](C)NC(=O)[C@H](CC(C)C)NC(=O)[C@H](CC(C)C)NC(=O)[C@H](Cc2c[nH]c3ccccc23)NC(=O)[C@H](CC(N)=O)NC(=O)[C@@H](NC(=O)[C@H](Cc2ccccc2)NC(=O)[C@H](CC(=O)O)NC(=O)[C@H](CCC(N)=O)NC(=O)[C@H](CCC(N)=O)NC(=O)[C@H](Cc2c[nH]cn2)NC(=O)[C@@H](NC(=O)[C@H](CCCCN)NC(=O)[C@H](CC(=O)O)NC(=O)[C@H](CCSC)NC(=O)[C@H](C)NC(=O)[C@@H](NC(=O)[C@H](CO)NC(=O)[C@H](Cc2ccc(O)cc2)NC(=O)[C@H](CC(=O)O)NC(=O)[C@H](CO)NC(=O)C2(N)CCCCC2)[C@@H](C)CC)[C@@H](C)CC)C(C)C)C(=O)N[C@@H](CCCCN)C(=O)N[C@@H](CCCCN)C(=O)N[C@@H](CC(N)=O)C(=O)N[C@@H](CC(=O)O)C(=O)N[C@@H](Cc2c[nH]c3ccccc23)C(=O)N[C@@H](CCCCN)C(=O)N[C@@H](Cc2c[nH]cn2)C(=O)N[C@@H](CC(N)=O)C(=O)N[C@H](C(=O)N[C@H](C(=O)N[C@@H](CCC(N)=O)C(=O)O)[C@@H](C)O)[C@@H](C)CC)C1=O (stereo partly drawn) [Example 23, [A6c^7, Cys(Hsu)^31]hGIP(7-42)-OH] (H-[Ac6c]SDYSIAMDKIHQQDFVNWLLAQKC(X2)KKNDWKHNITQ-OH) |  |  | 11.7 | 5.3
